Drawing on ChEMBL document CHEMBL2034902, “Simplified bicyclic pyridinol analogues protect mitochondrial function” (2012), this text covers Activity for seven compounds.

Assay [1] concerns CCRF-CEM. The assay is described as follows: Cytoprotective activity against DEM-induced ROS production in human CEM cells treated prior DEM challenge after 16 hrs by DCFH-DA-based flow cytometry relative to alpha-tocopherol. In kind it is functional, cell-based.
The test system of assay [2] is CCRF-CEM. The assay is described as follows: Cytoprotective activity against DEM-induced ROS production in human CEM cells at 1 to 5 uM pretreated for 16 hrs prior DEM challenge measured after 5.5 hrs by trypan blue exclusion method. In kind it is functional, cell-based.
Assay [3] relates to CCRF-CEM. Nature of the assay: Cytoprotective activity against DEM-induced ROS production in human CEM cells assessed as prevention of loss of mitochondrial potential pretreated for 16 hrs prior DEM challenge measured after 120 mins by TMRM-based flow cytometry (reference value: 94%). The format is functional, cell-based.
Assay [4] deals with CCRF-CEM. The assay is described as follows: Cytoprotective activity against DEM-induced ROS production in human CEM cells assessed as cells with intact mitochondrial potential at 2.5 uM pretreated for 16 hrs prior DEM challenge measured after 120 mins by TMRM-based flow cytometry (reference value: 94%). In kind it is functional.
Assay [5] relates to CCRF-CEM. The assay is described as follows: Cytoprotective activity against DEM-induced ROS production in human CEM cells assessed as cells with intact mitochondrial potential at 1 uM pretreated for 16 hrs prior DEM challenge measured after 120 mins by TMRM-based flow cytometry (reference value: 94%). In kind it is functional.
The test system of assay [6] is CCRF-CEM. The assay is described as follows: Cytoprotective activity against DEM-induced ROS production in human CEM cells assessed as reduction in lipid peroxidation at 2.5 to 5 uM treated prior DEM challenge measured after 16 hrs by C11-BODIPY581/591-based flow cytometry relative to alpha-tocopherol. In kind it is functional, cell-based.

Activity calls are given as the source filed them. No cut-off for these calls is given here.

Regarding `CCCCCCCCCCCCCCCCc1nc2c(c(C)c1OC(C)=O)CCN2C`, the outcome in the assay on CCRF-CEM [1], with CCRF-CEM [2] and in the assay with CCRF-CEM [6] was Active. Also, the Activity result is “Dose-dependent effect” with CCRF-CEM [3], 65% with CCRF-CEM [4] and 50% in the assay on CCRF-CEM [5].
Take `CCCCCc1nc2c(c(C)c1OC(C)=O)CCN2C`: the result in the assay with CCRF-CEM [1] and with CCRF-CEM [6] was inactive. Also, in the assay with CCRF-CEM [2], the result was Active. For the same compound, the Activity entry with CCRF-CEM [3] is “Dose-dependent effect”; in the assay with CCRF-CEM [4] it was 60%; in the assay with CCRF-CEM [5] it was 30%.
As for `Cc1c(C)c2c(c(C)c1O)CC[C@@](C)(CCC[C@H](C)CCC[C@H](C)CCCC(C)C)O2`, the result in the assay with CCRF-CEM [1], in the assay on CCRF-CEM [2] and in the assay with CCRF-CEM [6] was Active.
Regarding `CCCCCCCCCCCCCCCCc1nc2c(c(C)c1O)CCN2C.O=C(O)C(F)(F)F`, the outcome in the assay with CCRF-CEM [1] and with CCRF-CEM [6] was Active. Moreover, the result with CCRF-CEM [2] was inactive. Further, the Activity entry in the assay with CCRF-CEM [3] is “Dose-dependent effect”; in the assay on CCRF-CEM [4] it was 70%; in the assay with CCRF-CEM [5] it was 46%.
For the compound `CCCCCCCCCCc1nc2c(c(C)c1O)CCN2C.O=C(O)C(F)(F)F`, the Activity entry in the assay on CCRF-CEM [1] was “Dose-dependent effect”; in the assay with CCRF-CEM [3] it was “Dose-dependent effect”; in the assay on CCRF-CEM [4], 84%; with CCRF-CEM [5] it was 80%. In addition, the result in the assay on CCRF-CEM [2] and in the assay on CCRF-CEM [6] was Active.
With `CCCCCc1nc2c(c(C)c1O)CCN2C.O=C(O)C(F)(F)F`, the result in the assay on CCRF-CEM [1] and in the assay with CCRF-CEM [6] was inactive. Besides, the result in the assay with CCRF-CEM [2] was Active. Further, the Activity result was “Dose-dependent effect” in the assay with CCRF-CEM [3], 63% in the assay on CCRF-CEM [4] and 40% in the assay with CCRF-CEM [5].
In the case of `CCCCCCCCCCc1nc2c(c(C)c1OC(C)=O)CCN2C`, the Activity entry in the assay on CCRF-CEM [1] is “Dose-dependent effect”; in the assay on CCRF-CEM [3] it was “Dose-dependent effect”; in the assay on CCRF-CEM [4] it was 82%; in the assay on CCRF-CEM [5] it was 75%. Also, the outcome with CCRF-CEM [2] and in the assay on CCRF-CEM [6] was Active.
